Test results reported in patent publication US20070249620A1, “Urea Derivative” (priority 2004, published 2007).

melting point	SMILES
200 to 201 °C	COc1ccc(F)cc1NC(=O)Nc1ccc(N2CCN(C(=O)OC(C)(C)C)CC2)nc1 [Example 45, 4-{5-[3-(5-fluoro-2-methoxy-phenyl)-ureido]-pyridin-2-yl}-piperazine-1-carboxylic acid tert-butyl ester]
207 to 209 °C	CCc1cccc(C)c1NC(=O)N1CCN(c2ccc(NC(=O)Nc3cc(C)ccc3OC)cc2)CC1 [Example 63, 4-{4-[3-(2-methoxy-5-methyl-phenyl)-ureido]-phenyl}-piperazine-1-carboxylic acid (2-ethyl-6-methyl-phenyl)-amide]
196 to 199 °C	COc1ccc(C)cc1NC(=O)Nc1ccc(N2CCN(C(=O)Nc3ccc(C)cc3C)CC2)cc1 [Example 71, 4-{4-[3-(2-methoxy-5-methyl-phenyl)-ureido]-phenyl}-piperazine-1-carboxylic acid (2,4-dimethyl-phenyl)-amide]
103 to 105 °C	COc1ccc(C)cc1NC(=O)Nc1ccc(N2CCN(C(=O)OC(C)(C)C)CC2)c(C)c1 [Example 195, 4-{4-[3-(2-methoxy-5-methyl-phenyl)-ureido]-2-methyl-phenyl}-piperazine-1-carboxylic acid tert-butyl ester]
218 to 220 °C	COc1ccc(Cl)cc1NC(=O)Nc1ccc(N2CCN(C(=O)Nc3ccccc3F)CC2)cc1 [Example 67, 4-{4-[3-(5-chloro-2-methoxy-phenyl)-ureido]-phenyl}-piperazine-1-carboxylic acid (2-fluoro-phenyl)-amide]
213 to 214 °C	COc1ccc(Cl)cc1NC(=O)Nc1ccc(N2CCN(C(=O)Nc3ccccc3C(F)(F)F)CC2)cc1 [Example 68, 4-{4-[3-(5-chloro-2-methoxy-phenyl)-ureido]-phenyl}-piperazine-1-carboxylic acid (2-trifluoromethyl-phenyl)-amide]
165 to 167 °C	CCOc1ccc(Cl)cc1NC(=O)Nc1ccc(N2CCN(C(=O)OC(C)(C)C)CC2)cc1 [Example 43, 4-{4-[3-(5-chloro-2-ethoxy-phenyl)-ureido]-phenyl}-piperazine-1-carboxylic acid tert-butyl ester]
200 to 202 °C	COc1ccc(F)cc1NC(=O)Nc1ccc(N2CCN(C(=O)OC(C)(C)C)CC2)cc1 [Example 44, 4-{4-[3-(5-fluoro-2-methoxy-phenyl)-ureido]-phenyl}-piperazine-1-carboxylic acid tert-butyl ester]
221 °C	COc1ccc(C)cc1NC(=O)Nc1ccc(N2CCN(C(=O)Nc3ccccc3)CC2)cc1 [Example 49, 4-{4-[3-(2-methoxy-5-methyl-phenyl)-ureido]-phenyl}-piperazine-1-carboxylic acid phenylamide]
193 to 194 °C	COc1ccc(C)cc1NC(=O)Nc1ccc(N2CCC(C(=O)c3ccccc3)CC2)nc1 [Example 205, 1-(4-benzoyl-3,4,5,6-tetrahydro-2H-[1,2′]bipyridinyl-5′-yl)-3-(2-methoxy-5-methyl-phenyl)-urea]
> 240 °C (dec.)	COc1ccc(C)cc1NC(=O)Nc1ccc(N2CCN(C(=O)Nc3ccccc3Cl)CC2)cc1 [Example 56, 4-{4-[3-(2-methoxy-5-methyl-phenyl)-ureido]-phenyl}-piperazine-1-carboxylic acid (2-chloro-phenyl)-amide]
230 to 232 °C	COc1ccc(Cl)cc1NC(=O)Nc1ccc(N2CCN(C(=O)Nc3ccccc3C)CC2)cc1 [Example 69, 4-{4-[3-(5-chloro-2-methoxy-phenyl)-ureido]-phenyl}-piperazine-1-carboxylic acid o-tolylamide]
> 250 °C (dec.)	COc1ccc(C)cc1NC(=O)Nc1ccc(N2CCC(C(=O)Nc3c(C)cccc3Cl)CC2)cc1 [Example 196, 1-{4-[3-(2-methoxy-5-methyl-phenyl)-ureido]-phenyl}-piperidine-4-carboxylic acid (2-chloro-6-methyl-phenyl)-amide]

More lines, now with the values behind:

SMILES	melting point
CC(C)(C)OC(=O)N1CCN(c2ccc(NC(=O)Nc3cc(Cl)ccc3[N+](=O)[O-])cc2)CC1 [Example 10, 4-{4-[3-(5-chloro-2-nitro-phenyl)-ureido]-phenyl}-piperazine-1-carboxylic acid tert-butyl ester]	205 °C
CCOc1ccccc1NC(=O)Nc1ccc(N2CCN(C(=O)OC(C)(C)C)CC2)cc1 [Example 4, 4-{4-[3-(2-ethoxy-phenyl)-ureido]-phenyl}-piperazine-1-carboxylic acid tert-butyl ester]	84 °C
CCc1ccccc1NC(=O)Nc1ccc(N2CCN(C(=O)OC(C)(C)C)CC2)cc1 [Example 17, 4-{4-[3-(2-ethyl-phenyl)-ureido]-phenyl}-piperazine-1-carboxylic acid tert-butyl ester]	162 °C
CC(C)(C)OC(=O)N1CCN(c2ccc(NC(=O)Nc3ccccc3OC(F)F)cc2)CC1 [Example 9, 4-{4-[3-(2-difluoromethoxy-phenyl)-ureido]-phenyl}-piperazine-1-carboxylic acid tert-butyl ester]	154 to 155 °C
CC(C)(C)OC(=O)N1CCN(c2ccc(NC(=O)Nc3cc(Cl)ccc3Oc3ccccc3)cc2)CC1 [Example 8, 4-{4-[3-(5-chloro-2-phenoxy-phenyl)-ureido]-phenyl}-piperazine-1-carboxylic acid tert-butyl ester]	94 to 96 °C
CCCCc1ccc(NC(=O)Nc2ccc(N3CCN(C(=O)OC(C)(C)C)CC3)cc2)cc1 [Example 34, 4-{4-[3-(4-butyl-phenyl)-ureido]-phenyl}-piperazine-1-carboxylic acid tert-butyl ester]	167 to 170 °C
CCOc1ccc(C)cc1NC(=O)Nc1ccc(N2CCN(C(=O)OC(C)(C)C)CC2)cc1 [Example 41, 4-{4-[3-(2-ethoxy-5-methyl-phenyl)-ureido]-phenyl}-piperazine-1-carboxylic acid tert-butyl ester]	105 to 107 °C
CCc1cccc(NC(=O)Nc2ccc(N3CCN(C(=O)OC(C)(C)C)CC3)cc2)c1 [Example 30, 4-{4-[3-(3-ethyl-phenyl)-ureido]-phenyl}-piperazine-1-carboxylic acid tert-butyl ester]	160 °C
CC(C)(C)OC(=O)N1CCN(c2ccc(NC(=O)Nc3cccc(Cl)c3)cc2)CC1 [Example 32, 4-{4-[3-(3-chloro-phenyl)-ureido]-phenyl}-piperazine-1-carboxylic acid tert-butyl ester]	163 °C
Cc1cccc(NC(=O)Nc2ccc(N3CCN(C(=O)OC(C)(C)C)CC3)cc2)c1 [Example 31, 4-[4-(3-m-tolyl-ureido)-phenyl]-piperazine-1-carboxylic acid tert-butyl ester]	169 to 172 °C
Cc1ccccc1NC(=O)Nc1ccc(N2CCN(C(=O)OC(C)(C)C)CC2)cc1 [Example 16, 4-[4-(3-o-tolyl-ureido)-phenyl]-piperazine-1-carboxylic acid tert-butyl ester]	188 to 191 °C
CC(C)(C)OC(=O)N1CCN(c2ccc(NC(=O)Nc3cccc(Oc4ccccc4)c3)cc2)CC1 [Example 3, 4-{4-[3-(3-phenoxy-phenyl)-ureido]-phenyl}-piperazine-1-carboxylic acid tert-butyl ester]	172 °C
